Test results reported in PubChem BioAssay AID330 (DTP/NCI, 2004).
“And” between values parts separate entries of the source, which are not always exact repeats. Equal values may be shown once. Inconclusive results and toxic doses are left out. Rule for the calls: active = survival T/C of 150% or more; inactive = T/C below 125% in these data.

Tested on: P388 leukemia ip, CD2F1 mice, survival T/C
Assay: NCI In Vivo Anticancer Drug Screen. Data for tumor model P388 Leukemia (intraperitoneal) in CD2F1 (CDF1) mice
Conditions: endpoint: median survival time, higher = longer survival
How it was run: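 Mice carrying the transplanted tumor received test compound or vehicle. Survival was recorded in each group, and the value is the treated-group measurement divided by that of the vehicle-treated control group.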

[1] = dose: 50.0 mg/kg/injection, schedule: Q04DX003 (ip), vehicle: saline
[2] = dose: 100.0 mg/kg/injection, schedule: Q04DX003 (ip), vehicle: saline
[3] = dose: 200.0 mg/kg/injection, schedule: Q04DX003 (ip), vehicle: saline
[4] = dose: 50.0 mg/kg/injection, schedule: Q01DX009 (ip), vehicle: Klucel (hydroxypropylcellulose) (HPC)
[5] = dose: 100.0 mg/kg/injection, schedule: Q01DX009 (ip), vehicle: Klucel (hydroxypropylcellulose) (HPC)
[6] = dose: 200.0 mg/kg/injection, schedule: Q01DX009 (ip), vehicle: Klucel (hydroxypropylcellulose) (HPC)
[7] = dose: 50.0 mg/kg/injection, schedule: Q01DX005 (ip), vehicle: Klucel (hydroxypropylcellulose) (HPC)
[8] = dose: 100.0 mg/kg/injection, schedule: Q01DX005 (ip), vehicle: Klucel (hydroxypropylcellulose) (HPC)
[9] = dose: 200.0 mg/kg/injection, schedule: Q01DX005 (ip), vehicle: Klucel (hydroxypropylcellulose) (HPC)
[10] = dose: 60.0 mg/kg/injection, schedule: Q01DX005 (ip), vehicle: saline with Tween-80
[11] = dose: 120.0 mg/kg/injection, schedule: Q01DX005 (ip), vehicle: saline with Tween-80
[12] = dose: 25.0 mg/kg/injection, schedule: Q01DX009 (ip), vehicle: Klucel (hydroxypropylcellulose) (HPC)
[13] = dose: 50.0 mg/kg/injection, schedule: Q01DX005 (ip), vehicle: saline with Tween-80
[14] = dose: 240.0 mg/kg/injection, schedule: Q01DX005 (ip), vehicle: saline with Tween-80

Measured: T/C

CC1(C)N=C(N)N=C(N)N1NC(=O)c1cccc(Cl)c1
inactive: [1] 110 % of control | [2] 100 % of control | [3] 105 % of control

COc1cccc2c1NC(O)c1cccn1C2=O (stereo unspecified)
inactive: dose: 0.1 mg/kg/injection, schedule: Q01DX005 (ip), vehicle: water 93 % of control | dose: 0.2 mg/kg/injection, schedule: Q01DX005 (ip), vehicle: water 93 % of control | dose: 0.4 mg/kg/injection, schedule: Q01DX005 (ip), vehicle: water 96 % of control | dose: 0.8 mg/kg/injection, schedule: Q01DX005 (ip), vehicle: water 93 % of control | dose: 1.6 mg/kg/injection, schedule: Q01DX005 (ip), vehicle: water 98 % of control | dose: 5.0 mg/kg/injection, schedule: Q01DX005 (ip), vehicle: distilled water + Tween-80 90 % of control | dose: 10.0 mg/kg/injection, schedule: Q01DX005 (ip), vehicle: distilled water + Tween-80 98 % of control | dose: 20.0 mg/kg/injection, schedule: Q01DX005 (ip), vehicle: distilled water + Tween-80 100 % of control | dose: 40.0 mg/kg/injection, schedule: Q01DX005 (ip), vehicle: distilled water + Tween-80 100 % of control | dose: 80.0 mg/kg/injection, schedule: Q01DX005 (ip), vehicle: distilled water + Tween-80 93 % of control

COc1ccc(S(=O)(=O)O)cc1NS(=O)(=O)c1ccc(C)cc1
inactive: dose: 60.0 mg/kg/injection, schedule: Q01DX005 (ip), vehicle: saline 102 % of control | dose: 120.0 mg/kg/injection, schedule: Q01DX005 (ip), vehicle: saline 98 % of control | dose: 240.0 mg/kg/injection, schedule: Q01DX005 (ip), vehicle: saline 103 % of control

C/C(=N\NS(=O)(=O)c1ccc(C)cc1)c1cccs1
inactive: [4] 100 % of control | [5] 91 % of control | [6] 92 % of control

O=C(O)CCCCCCCCCO
inactive: dose: 25.0 mg/kg/injection, schedule: Q01DX009 (ip), vehicle: saline 109 % of control | dose: 50.0 mg/kg/injection, schedule: Q01DX009 (ip), vehicle: saline 115 % of control | dose: 100.0 mg/kg/injection, schedule: Q01DX009 (ip), vehicle: saline 100 % of control | dose: 200.0 mg/kg/injection, schedule: Q01DX009 (ip), vehicle: saline 100 % of control

Cc1nn(Cc2ccccc2)c(C)c1-c1c(C)nn(Cc2ccccc2)c1C
inactive: [7] 104 % of control | [8] 103 % of control | [9] 99 % of control

N=Cc1cc([N+](=O)[O-])ccc1O
inactive: [10] 105 % of control | [11] 104 % of control

O=C1C=CC(=O)N1n1cccc1
inactive: dose: 6.25 mg/kg/injection, schedule: Q01DX009 (ip), vehicle: Klucel (hydroxypropylcellulose) (HPC) 105 % of control | dose: 12.5 mg/kg/injection, schedule: Q01DX009 (ip), vehicle: Klucel (hydroxypropylcellulose) (HPC) 98 % of control | [12] 90 % of control

O=C1CC2(CCc3ccccc32)C(=O)N1CN1CCN(c2ccccn2)CC1 (stereo unspecified)
inactive: [13] 106 % of control | dose: 100.0 mg/kg/injection, schedule: Q01DX005 (ip), vehicle: saline with Tween-80 109 % of control | dose: 200.0 mg/kg/injection, schedule: Q01DX005 (ip), vehicle: saline with Tween-80 92 % of control

CS(=O)(=O)OCCN1C(=O)CNC1=O
inactive: dose: 12.5 mg/kg/injection, schedule: Q04DX003 (ip), vehicle: saline 99 % of control | dose: 25.0 mg/kg/injection, schedule: Q04DX003 (ip), vehicle: saline 106 % of control | [1] 99 % of control | [2] 101 % of control | [3] 101 % of control | dose: 400.0 mg/kg/injection, schedule: Q04DX003 (ip), vehicle: saline 99 % of control

O=C(/C=C/c1ccc(Cl)cc1)c1ccccc(=O)c1O
inactive: [7] 101 % of control | [8] 100 % of control

Cc1ccc(S(=O)(=O)N/N=C/C=N/NS(=O)(=O)c2ccc(C)cc2)cc1
inactive: dose: 12.5 mg/kg/injection, schedule: Q01DX009 (ip), vehicle: other 106 % of control | dose: 25.0 mg/kg/injection, schedule: Q01DX009 (ip), vehicle: other 107 % of control | dose: 50.0 mg/kg/injection, schedule: Q01DX009 (ip), vehicle: other 105 % of control | dose: 100.0 mg/kg/injection, schedule: Q01DX009 (ip), vehicle: other 96 % of control | dose: 200.0 mg/kg/injection, schedule: Q01DX009 (ip), vehicle: other 97 % of control

CC1CN1P(=S)(Oc1ccccc1)N1CC1C (stereo unspecified)
inactive: dose: 100.0 mg/kg/injection, schedule: Q01DX009 (ip), vehicle: saline with Tween-80 110 % of control | dose: 100.0 mg/kg/injection, schedule: Q04DX003 (ip), vehicle: saline with Tween-80 109 % of control | dose: 200.0 mg/kg/injection, schedule: Q04DX003 (ip), vehicle: saline with Tween-80 118 % of control | dose: 400.0 mg/kg/injection, schedule: Q04DX003 (ip), vehicle: saline with Tween-80 122 % of control

O=c1c(Cc2c[nH]c3ccccc23)coc2ccccc12
inactive: [10] 100 % of control | [11] 90 % of control | [14] 89 % of control

COc1ccc2c3c(ccc2c1)C(=O)/C(=C\O)CC3
inactive: dose: 12.5 mg/kg/injection, schedule: Q01DX005 (ip), vehicle: Klucel (hydroxypropylcellulose) (HPC) 103 % of control | dose: 25.0 mg/kg/injection, schedule: Q01DX005 (ip), vehicle: Klucel (hydroxypropylcellulose) (HPC) 93 % of control | [7] 95 % of control and 97 % of control

CC([NH-])CC(C)[NH-].[Cl][Pt+2][Cl] (stereo unspecified)
inactive: dose: 0.78 mg/kg/injection, schedule: Q04DX002 (ip), vehicle: saline with Tween-80 119 % of control

C=Cc1c(C)c2cc3[nH]c(cc4nc(cc5nc(cc1[nH]2)C(C)=C5CCC(=O)OC)C(CCC(=O)OC)=C4C)c(C)c3C#N
inactive: [7] 107 % of control | [8] 109 % of control | [9] 111 % of control

O=C1c2ccccc2CC12OC2c1ccccc1 (stereo unspecified)
inactive: [12] 96 % of control | [4] 92 % of control | [5] 92 % of control | [6] 89 % of control | dose: 400.0 mg/kg/injection, schedule: Q01DX009 (ip), vehicle: Klucel (hydroxypropylcellulose) (HPC) 92 % of control

CC(O)C(=O)NC1CCCCC1 (stereo unspecified)
inactive: dose: 50.0 mg/kg/injection, schedule: Q01DX005 (ip), vehicle: saline 98 % of control | dose: 100.0 mg/kg/injection, schedule: Q01DX005 (ip), vehicle: saline 88 % of control | dose: 200.0 mg/kg/injection, schedule: Q01DX005 (ip), vehicle: saline 89 % of control

COc1ccc(C[C@H]2c3c(cc4c(c3OC)OCO4)CCN2C)c(CO)c1OC
inactive: dose: 9.38 mg/kg/injection, schedule: Q01DX005 (ip), vehicle: Klucel (hydroxypropylcellulose) (HPC) 100 % of control | dose: 18.75 mg/kg/injection, schedule: Q01DX005 (ip), vehicle: Klucel (hydroxypropylcellulose) (HPC) 98 % of control | dose: 37.5 mg/kg/injection, schedule: Q01DX005 (ip), vehicle: Klucel (hydroxypropylcellulose) (HPC) 94 % of control | dose: 75.0 mg/kg/injection, schedule: Q01DX005 (ip), vehicle: Klucel (hydroxypropylcellulose) (HPC) 99 % of control

CN(C)c1cccc2c(S(=O)(=O)NCCCCCCCCCCCCNS(=O)(=O)c3cccc4c(N(C)C)cccc34)cccc12
inactive: dose: 15.0 mg/kg/injection, schedule: Q01DX005 (ip), vehicle: saline with Tween-80 96 % of control | dose: 30.0 mg/kg/injection, schedule: Q01DX005 (ip), vehicle: saline with Tween-80 92 % of control | [10] 87 % of control | [14] 88 % of control

O=[N+]([O-])c1ccc(-c2csc(Nc3ccccn3)n2)o1
inactive: dose: 12.5 mg/kg/injection, schedule: Q01DX005 (ip), vehicle: saline with Tween-80 95 % of control | dose: 25.0 mg/kg/injection, schedule: Q01DX005 (ip), vehicle: saline with Tween-80 99 % of control | [13] 88 % of control and 92 % of control

COc1ccc(N=C2C(=Nc3ccc(OC)cc3)N(c3ccc(OC)cc3)C(=S)N2C)cc1
inactive: dose: 50.0 mg/kg/injection, schedule: Q01DX005 (ip), vehicle: Klucel + Tween-80 106 % of control | dose: 100.0 mg/kg/injection, schedule: Q01DX005 (ip), vehicle: Klucel + Tween-80 93 % of control | dose: 200.0 mg/kg/injection, schedule: Q01DX005 (ip), vehicle: Klucel + Tween-80 106 % of control

COc1ccc2c(=O)cc(-c3ccc4ccccc4n3)oc2c1OC
inactive: [7] 98 % of control | [8] 95 % of control | [9] 90 % of control
